This is an account of results in ChEMBL document CHEMBL1123509, “In vitro inhibition of estrogen sulfoconjugation by some 2- and 4-substituted estra-1,3,5(10)-trien-17 beta-ols1a” (J Med Chem, 1986).

This assay addresses T1, Estrogen sulfotransferase (Sus scrofa, UniProt Q95MF8).
T1 sequence (Q95MF8 whole entry): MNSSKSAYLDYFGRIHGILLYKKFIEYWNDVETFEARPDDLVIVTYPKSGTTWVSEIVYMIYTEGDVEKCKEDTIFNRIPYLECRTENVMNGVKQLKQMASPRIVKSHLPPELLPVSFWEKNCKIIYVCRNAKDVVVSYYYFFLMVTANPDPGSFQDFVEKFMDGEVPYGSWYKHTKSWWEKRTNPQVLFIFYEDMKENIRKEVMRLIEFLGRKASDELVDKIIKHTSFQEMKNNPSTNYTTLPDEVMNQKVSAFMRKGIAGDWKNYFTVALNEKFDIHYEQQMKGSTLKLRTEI
The assay is described as follows: Compound was tested for inhibition of porcine endometrial estrogen sulfotransferase. The conditions noted are these: read-out: Ki app.
Take `C[C@]12CC[C@@H]3c4cc(F)ccc4CC[C@H]3[C@@H]1CCC2O` (stereo not given in full): the Ki was 13.6 µM.
Then `C[C@]12CC[C@@H]3c4cc(N)ccc4CC[C@H]3[C@@H]1CCC2O` (stereo not given in full), with 7.51 µM; and `C[C@]12CC[C@@H]3c4cc([N+](=O)[O-])ccc4CC[C@H]3[C@@H]1CC[C@@H]2O`, with 9.76 µM.
In the case of `C[C@]12CC[C@@H]3c4cccc(F)c4CC[C@H]3[C@@H]1CCC2=O` it was 14.8 µM; in that of `C[C@]12CC[C@@H]3c4cccc(F)c4CC[C@H]3[C@@H]1CC[C@@H]2O`, 10.2 µM.
For `C[C@]12CC[C@@H]3c4cccc(N)c4CC[C@H]3[C@@H]1CCC2=O`, the Ki was found to be 10.5 µM.
Then `C[C@]12CC[C@@H]3c4ccccc4CC[C@H]3[C@@H]1CC[C@@H]2O`, with 16.3 µM.
Then `C[C@]12CC[C@@H]3c4ccccc4CC[C@H]3[C@@H]1CCC2=O`, with 25.1 µM.
For `C[C@]12CC[C@@H]3c4cccc([N+](=O)[O-])c4CC[C@H]3[C@@H]1CC[C@@H]2O`, the Ki was found to be 2.43 µM.
Then `C[C@]12CC[C@@H]3c4cccc(N)c4CC[C@H]3[C@@H]1CCC2O` (stereo not given in full), with 11.9 µM.
